Results published in patent US11208412B2 (DAEGU-GYEONGBUK MEDICAL INNOVATION FOUNDATION, priority 2017, dated 2021).

How the values were obtained:
Assay in all cases: Kinase selectivity, DiscoverX scanMAX Kinase assay panel (% control)
Format in all cases: binding
[1] = target: T1, kinases of the scanMAX Kinase assay panel (Homo sapiens, UniProt P52333); settings: JAK3(JH1domain-catalytic); 1 uM
T1 construct: purchased DiscoverX Co. (contract measurement) scanMAX Kinase assay panel
T1 sequence (P52333 1-1124): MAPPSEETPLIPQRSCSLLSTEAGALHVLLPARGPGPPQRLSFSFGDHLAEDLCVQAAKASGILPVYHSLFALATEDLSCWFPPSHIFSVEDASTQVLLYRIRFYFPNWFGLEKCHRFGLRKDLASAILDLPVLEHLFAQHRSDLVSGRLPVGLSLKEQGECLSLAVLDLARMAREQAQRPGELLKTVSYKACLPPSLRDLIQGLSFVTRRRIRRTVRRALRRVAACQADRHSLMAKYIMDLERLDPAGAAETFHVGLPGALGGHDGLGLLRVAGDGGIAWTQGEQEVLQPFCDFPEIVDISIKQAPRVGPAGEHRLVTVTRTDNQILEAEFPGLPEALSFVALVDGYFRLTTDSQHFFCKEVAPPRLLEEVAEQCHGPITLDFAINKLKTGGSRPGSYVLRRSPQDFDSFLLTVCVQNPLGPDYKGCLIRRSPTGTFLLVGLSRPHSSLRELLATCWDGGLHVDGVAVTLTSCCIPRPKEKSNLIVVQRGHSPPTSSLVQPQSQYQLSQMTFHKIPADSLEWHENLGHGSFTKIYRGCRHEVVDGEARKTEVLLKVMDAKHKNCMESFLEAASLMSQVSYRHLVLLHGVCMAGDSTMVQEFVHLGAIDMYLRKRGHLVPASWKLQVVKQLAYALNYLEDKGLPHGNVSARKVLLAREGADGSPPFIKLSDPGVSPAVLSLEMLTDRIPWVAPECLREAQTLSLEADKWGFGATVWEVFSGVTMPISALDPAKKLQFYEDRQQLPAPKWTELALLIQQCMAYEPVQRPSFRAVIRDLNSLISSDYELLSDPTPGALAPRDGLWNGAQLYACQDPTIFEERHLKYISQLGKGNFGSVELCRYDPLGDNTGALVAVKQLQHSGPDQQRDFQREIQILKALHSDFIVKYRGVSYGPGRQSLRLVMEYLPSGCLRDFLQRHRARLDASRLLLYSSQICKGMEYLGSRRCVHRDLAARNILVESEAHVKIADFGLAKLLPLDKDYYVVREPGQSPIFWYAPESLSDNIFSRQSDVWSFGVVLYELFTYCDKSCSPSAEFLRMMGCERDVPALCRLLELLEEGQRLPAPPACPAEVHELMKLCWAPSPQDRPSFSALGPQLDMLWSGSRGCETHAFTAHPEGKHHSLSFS
How it was run: (§1)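 Percent of control computed as (compound − positive control)/(negative control − positive control) × 100, DMSO defining 100% and positive control 0%. Each panel kinase exposed to 1 uM compound; values under 35% taken to mean the compound acts on that kinase.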

[2] = target: T2, kinases of the scanMAX Kinase assay panel (Homo sapiens, UniProt Q92630); settings: DYRK2; 1 uM
T2 construct: purchased DiscoverX Co. (contract measurement) scanMAX Kinase assay panel
T2 sequence (Q92630 1-601): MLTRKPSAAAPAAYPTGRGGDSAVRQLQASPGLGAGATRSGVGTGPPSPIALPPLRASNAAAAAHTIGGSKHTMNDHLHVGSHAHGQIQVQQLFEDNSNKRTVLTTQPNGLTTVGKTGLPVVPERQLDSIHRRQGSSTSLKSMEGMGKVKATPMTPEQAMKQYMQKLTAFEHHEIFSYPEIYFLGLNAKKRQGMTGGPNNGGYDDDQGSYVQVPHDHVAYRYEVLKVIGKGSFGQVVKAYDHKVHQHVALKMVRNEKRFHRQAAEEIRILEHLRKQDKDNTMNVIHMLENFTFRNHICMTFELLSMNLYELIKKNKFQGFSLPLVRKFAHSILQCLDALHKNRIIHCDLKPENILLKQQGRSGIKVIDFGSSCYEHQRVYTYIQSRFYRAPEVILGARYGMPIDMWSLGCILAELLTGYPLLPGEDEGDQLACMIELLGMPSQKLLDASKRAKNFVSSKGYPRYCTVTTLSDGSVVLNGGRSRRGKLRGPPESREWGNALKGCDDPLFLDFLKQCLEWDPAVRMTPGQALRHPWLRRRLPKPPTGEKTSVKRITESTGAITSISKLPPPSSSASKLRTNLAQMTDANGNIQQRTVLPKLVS
How it was run: as §1

[3] = target: T3, kinases of the scanMAX Kinase assay panel (Homo sapiens, UniProt Q9H093); settings: kinase SNARK; 1 uM in DMSO
T3 construct: purchased DiscoverX Co. (contract measurement) scanMAX Kinase assay panel
T3 sequence (Q9H093 1-628): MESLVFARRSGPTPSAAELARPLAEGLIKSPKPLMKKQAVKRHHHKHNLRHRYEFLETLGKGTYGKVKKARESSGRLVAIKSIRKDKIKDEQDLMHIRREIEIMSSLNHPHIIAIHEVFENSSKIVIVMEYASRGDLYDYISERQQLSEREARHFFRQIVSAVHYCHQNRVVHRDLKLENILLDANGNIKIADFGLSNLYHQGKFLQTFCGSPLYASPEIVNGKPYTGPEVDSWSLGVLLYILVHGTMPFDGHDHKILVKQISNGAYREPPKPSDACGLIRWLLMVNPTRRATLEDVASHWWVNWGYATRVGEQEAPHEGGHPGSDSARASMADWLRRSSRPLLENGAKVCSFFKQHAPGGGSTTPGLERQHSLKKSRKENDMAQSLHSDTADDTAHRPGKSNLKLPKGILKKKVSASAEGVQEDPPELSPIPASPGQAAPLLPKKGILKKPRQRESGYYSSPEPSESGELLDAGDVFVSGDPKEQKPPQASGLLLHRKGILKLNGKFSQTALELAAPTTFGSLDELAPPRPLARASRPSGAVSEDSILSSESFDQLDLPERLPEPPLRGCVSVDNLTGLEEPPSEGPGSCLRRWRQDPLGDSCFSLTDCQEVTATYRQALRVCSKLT
How it was run: as §1

SMILES | remaining binding at 1 µM [1] [%] | remaining binding at 1 µM [2] [%] | remaining binding at 1 µM [3] [%]
CC1(Nc2nc(Nc3cnn([C@H]4CCN(C5COC5)C[C@@H]4F)c3Cl)nc3[nH]cc(C#N)c23)CC1 [Example 52, 2-((5-chloro-1-((3S,4S)-3-fluoro-1-(oxetane-3-yl)piperidine-4-yl)-1H-pyrazole-4-yl)amino)((1-methylcyclopropyl)amino)-7H-pyrrolo[2,3-d]pyrimidine-5-carbonitrile] | 0 | 0.8 | 0.95
CNc1nc(Nc2ccc(C(=O)N3CCOCC3)cc2OC)nc2[nH]cc(C#N)c12 [Example 1, 2-((2-methoxy-4-(morpholine-4-carbonyl)phenyl)amino)-4-(methylamino)-7H-pyrrolo[2,3-d]pyrimidine-5-carbonitrile] | 64 | 22 | 77
CCNc1nc(Nc2ccc(C(=O)N3CCC(N4CCOCC4)CC3)cc2OC)nc2[nH]cc(C(F)(F)F)c12 [Example 104, (4-((4-(ethylamino)-5-(trifluoromethyl)-7H-pyrrolo[2,3-d]pyrimidine-2-yl)amino)-3-methoxyphenyl)(4-morpholinopiperidine-1-yl)methanone] | 100 | 25 | 91
